Results as given in PubChem BioAssay (NCI).
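Step 1: Grow cells in 96-well plates. Step 2: Expose to compound for 48 hours at 5 concentrations. Step 3: Interpolate endpoints linearly; if unreached, use highest concentration. TGI denotes the concentration required for complete inhibition of growth.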

Legend:
Assay in all cases: inhibition of tumour cell growth, NCI panel, 48 h
DLD-1 colon = tested on: DLD-1 colon
HT29 colon = tested on: HT29 colon
NCI-H226 lung = tested on: NCI-H226 lung
SF-539 CNS = tested on: SF-539 CNS
RXF-631 renal = tested on: RXF-631 renal
OVCAR-8 ovarian = tested on: OVCAR-8 ovarian
OVCAR-3 ovarian = tested on: OVCAR-3 ovarian
SK-MEL-2 melanoma = tested on: SK-MEL-2 melanoma
MALME-3M melanoma = tested on: MALME-3M melanoma
XF 498 CNS = tested on: XF 498 CNS
KM12 colon = tested on: KM12 colon
HOP-92 NSCLC = tested on: HOP-92 NSCLC
A498 renal = tested on: A498 renal
RXF 393 renal = tested on: RXF 393 renal
CCRF-CEM leukemia = tested on: CCRF-CEM leukemia
SN12C renal = tested on: SN12C renal
IGROV1 ovarian = tested on: IGROV1 ovarian
U251 CNS = tested on: U251 CNS
K-562 leukemia = tested on: K-562 leukemia
HCT-15 colon = tested on: HCT-15 colon
NCI-H460 lung = tested on: NCI-H460 lung
SNB-78 CNS = tested on: SNB-78 CNS
RPMI-8226 leukemia = tested on: RPMI-8226 leukemia
OVCAR-4 ovarian = tested on: OVCAR-4 ovarian
SK-MEL-28 melanoma = tested on: SK-MEL-28 melanoma
TK-10 renal = tested on: TK-10 renal
SF-268 CNS = tested on: SF-268 CNS
LXFL 529 NSCLC = tested on: LXFL 529 NSCLC
A549 NSCLC = tested on: A549 NSCLC
DMS 114 small cell lung = tested on: DMS 114 small cell lung
ACHN renal = tested on: ACHN renal
HOP-62 NSCLC = tested on: HOP-62 NSCLC
NCI-H522 lung = tested on: NCI-H522 lung
786-0 renal = tested on: 786-0 renal
UO-31 renal = tested on: UO-31 renal
CAKI-1 renal = tested on: CAKI-1 renal
UACC-257 melanoma = tested on: UACC-257 melanoma
SW-620 colon = tested on: SW-620 colon
LOX IMVI melanoma = tested on: LOX IMVI melanoma
HCC-2998 colon = tested on: HCC-2998 colon
COLO 205 colon = tested on: COLO 205 colon
SNB-75 CNS = tested on: SNB-75 CNS
NCI-H23 lung = tested on: NCI-H23 lung
EKVX NSCLC = tested on: EKVX NSCLC
SF-295 CNS = tested on: SF-295 CNS
MOLT-4 leukemia = tested on: MOLT-4 leukemia
HL-60(TB) leukemia = tested on: HL-60(TB) leukemia
M19-MEL melanoma = tested on: M19-MEL melanoma
M14 melanoma = tested on: M14 melanoma
UACC-62 melanoma = tested on: UACC-62 melanoma
OVCAR-5 ovarian = tested on: OVCAR-5 ovarian
SK-OV-3 ovarian = tested on: SK-OV-3 ovarian
KM20L2 colon = tested on: KM20L2 colon
SK-MEL-5 melanoma = tested on: SK-MEL-5 melanoma
SNB-19 CNS = tested on: SNB-19 CNS
HCT-116 colon = tested on: HCT-116 colon
DMS 273 small cell lung = tested on: DMS 273 small cell lung
SR leukemia = tested on: SR leukemia
HOP-18 NSCLC = tested on: HOP-18 NSCLC

O=C1CCC2(c3ccccc3)Nc3cc(Cl)ccc3N12 (stereo not given)
TGI (DLD-1 colon): > 100 µM
TGI (HT29 colon): > 100 µM
TGI (NCI-H226 lung): 65.1 µM
TGI (SF-539 CNS): > 100 µM
TGI (RXF-631 renal): > 100 µM
TGI (OVCAR-8 ovarian): > 100 µM
TGI (OVCAR-3 ovarian): 62.8 µM
TGI (SK-MEL-2 melanoma): 53.5 µM
TGI (MALME-3M melanoma): 75.5 µM
TGI (XF 498 CNS): 56.6 µM
TGI (KM12 colon): > 100 µM
TGI (HOP-92 NSCLC): 40.7 µM
TGI (A498 renal): 98.7 µM
TGI (RXF 393 renal): > 100 µM
TGI (CCRF-CEM leukemia): 75.2 µM
TGI (SN12C renal): > 100 µM
TGI (IGROV1 ovarian): > 100 µM
TGI (U251 CNS): > 100 µM
TGI (K-562 leukemia): > 100 µM
TGI (HCT-15 colon): > 100 µM
TGI (NCI-H460 lung): > 100 µM
TGI (SNB-78 CNS): > 100 µM
TGI (RPMI-8226 leukemia): 58.6 µM
TGI (OVCAR-4 ovarian): > 100 µM
TGI (SK-MEL-28 melanoma): > 100 µM
TGI (TK-10 renal): > 100 µM
TGI (SF-268 CNS): > 100 µM
TGI (LXFL 529 NSCLC): > 100 µM
TGI (A549 NSCLC): > 100 µM
TGI (DMS 114 small cell lung): 57.3 µM
TGI (ACHN renal): 96.1 µM
TGI (HOP-62 NSCLC): > 100 µM
TGI (NCI-H522 lung): > 100 µM
TGI (786-0 renal): > 100 µM
TGI (UO-31 renal): 63.3 µM
TGI (CAKI-1 renal): 87.1 µM
TGI (UACC-257 melanoma): 71.5 µM
TGI (SW-620 colon): > 100 µM
TGI (LOX IMVI melanoma): > 100 µM
TGI (HCC-2998 colon): > 100 µM
TGI (COLO 205 colon): 31.6 µM
TGI (SNB-75 CNS): 64.9 µM
TGI (NCI-H23 lung): 60.7 µM
TGI (EKVX NSCLC): > 100 µM
TGI (SF-295 CNS): 96 µM
TGI (MOLT-4 leukemia): 57.9 µM
TGI (HL-60(TB) leukemia): 48.1 µM
TGI (M19-MEL melanoma): 82.6 µM
TGI (M14 melanoma): > 100 µM
TGI (UACC-62 melanoma): 56.4 µM
TGI (OVCAR-5 ovarian): > 100 µM
TGI (SK-OV-3 ovarian): 85.1 µM
TGI (KM20L2 colon): > 100 µM
TGI (SK-MEL-5 melanoma): 32.4 µM

CCC1=CC2CC(C(=O)OC)C1(N(C)C)C2=O (stereo not given)
TGI (HT29 colon): > 100 µM
TGI (RXF-631 renal): > 100 µM
TGI (OVCAR-8 ovarian): > 100 µM
TGI (KM12 colon): > 100 µM
TGI (HOP-92 NSCLC): > 100 µM
TGI (A498 renal): > 100 µM
TGI (RXF 393 renal): > 100 µM
TGI (CCRF-CEM leukemia): > 100 µM
TGI (IGROV1 ovarian): > 100 µM
TGI (U251 CNS): > 100 µM
TGI (SNB-19 CNS): > 100 µM
TGI (HCT-116 colon): > 100 µM
TGI (NCI-H460 lung): > 100 µM
TGI (SNB-78 CNS): > 100 µM
TGI (SK-MEL-28 melanoma): > 100 µM
TGI (TK-10 renal): > 100 µM
TGI (SF-268 CNS): > 100 µM
TGI (A549 NSCLC): > 100 µM
TGI (DMS 114 small cell lung): > 100 µM
TGI (ACHN renal): > 100 µM
TGI (HOP-62 NSCLC): > 100 µM
TGI (NCI-H522 lung): > 100 µM
TGI (UO-31 renal): > 100 µM
TGI (UACC-257 melanoma): > 100 µM
TGI (DMS 273 small cell lung): > 100 µM
TGI (NCI-H23 lung): > 100 µM
TGI (SR leukemia): > 100 µM
TGI (EKVX NSCLC): > 100 µM
TGI (SF-295 CNS): > 100 µM
TGI (MOLT-4 leukemia): > 100 µM
TGI (HL-60(TB) leukemia): > 100 µM
TGI (M19-MEL melanoma): > 100 µM
TGI (M14 melanoma): > 100 µM
TGI (UACC-62 melanoma): > 100 µM
TGI (OVCAR-5 ovarian): > 100 µM
TGI (SK-OV-3 ovarian): > 100 µM

CC(CCCOC(c1ccccc1)(c1ccccc1)c1ccccc1)OC(=O)Nc1cc([N+](=O)[O-])cc([N+](=O)[O-])c1 (stereo not given)
TGI (DLD-1 colon): > 100 µM
TGI (HT29 colon): > 100 µM
TGI (SF-539 CNS): > 100 µM
TGI (RXF-631 renal): > 100 µM
TGI (OVCAR-8 ovarian): > 100 µM
TGI (OVCAR-3 ovarian): > 100 µM
TGI (SK-MEL-2 melanoma): 78.9 µM
TGI (MALME-3M melanoma): 83.2 µM
TGI (KM12 colon): > 100 µM
TGI (A498 renal): 72.3 µM
TGI (RXF 393 renal): > 100 µM
TGI (CCRF-CEM leukemia): > 100 µM
TGI (SN12C renal): > 100 µM
TGI (IGROV1 ovarian): > 100 µM
TGI (U251 CNS): 83.8 µM
TGI (SNB-19 CNS): > 100 µM
TGI (K-562 leukemia): > 100 µM
TGI (HCT-116 colon): > 100 µM
TGI (HCT-15 colon): > 100 µM
TGI (NCI-H460 lung): 73.2 µM
TGI (RPMI-8226 leukemia): > 100 µM
TGI (OVCAR-4 ovarian): > 100 µM
TGI (SK-MEL-28 melanoma): 54.4 µM
TGI (SF-268 CNS): > 100 µM
TGI (LXFL 529 NSCLC): > 100 µM
TGI (A549 NSCLC): > 100 µM
TGI (DMS 114 small cell lung): > 100 µM
TGI (ACHN renal): 93.5 µM
TGI (HOP-62 NSCLC): 83.4 µM
TGI (NCI-H522 lung): 59.5 µM
TGI (786-0 renal): 94.9 µM
TGI (UO-31 renal): > 100 µM
TGI (CAKI-1 renal): 72.1 µM
TGI (UACC-257 melanoma): 85.1 µM
TGI (DMS 273 small cell lung): > 100 µM
TGI (SW-620 colon): > 100 µM
TGI (LOX IMVI melanoma): > 100 µM
TGI (HCC-2998 colon): > 100 µM
TGI (SNB-75 CNS): 72.5 µM
TGI (NCI-H23 lung): 58.7 µM
TGI (SR leukemia): > 100 µM
TGI (EKVX NSCLC): 97 µM
TGI (SF-295 CNS): > 100 µM
TGI (MOLT-4 leukemia): > 100 µM
TGI (HL-60(TB) leukemia): 85.3 µM
TGI (M19-MEL melanoma): > 100 µM
TGI (M14 melanoma): > 100 µM
TGI (UACC-62 melanoma): 50.2 µM
TGI (SK-OV-3 ovarian): 57.9 µM
TGI (SK-MEL-5 melanoma): 44.6 µM

O=C1c2ccccc2C(=O)C1C(c1ccc([N+](=O)[O-])cc1)C1C(=O)c2ccccc2C1=O
TGI (DLD-1 colon): > 100 µM
TGI (HT29 colon): > 100 µM
TGI (NCI-H226 lung): > 100 µM
TGI (SF-539 CNS): > 100 µM
TGI (RXF-631 renal): 29.7 µM
TGI (OVCAR-8 ovarian): 72.8 µM
TGI (OVCAR-3 ovarian): 34.1 µM
TGI (SK-MEL-2 melanoma): > 100 µM
TGI (MALME-3M melanoma): > 100 µM
TGI (XF 498 CNS): > 100 µM
TGI (KM12 colon): > 100 µM
TGI (HOP-92 NSCLC): > 100 µM
TGI (RXF 393 renal): 32.9 µM
TGI (CCRF-CEM leukemia): > 100 µM
TGI (SN12C renal): > 100 µM
TGI (U251 CNS): > 100 µM
TGI (SNB-19 CNS): > 100 µM
TGI (K-562 leukemia): > 100 µM
TGI (HCT-116 colon): 49.3 µM
TGI (HCT-15 colon): > 100 µM
TGI (NCI-H460 lung): > 100 µM
TGI (SNB-78 CNS): > 100 µM
TGI (RPMI-8226 leukemia): > 100 µM
TGI (OVCAR-4 ovarian): > 100 µM
TGI (SK-MEL-28 melanoma): 93.6 µM
TGI (TK-10 renal): > 100 µM
TGI (SF-268 CNS): 73.6 µM
TGI (LXFL 529 NSCLC): > 100 µM
TGI (A549 NSCLC): > 100 µM
TGI (ACHN renal): > 100 µM
TGI (HOP-62 NSCLC): > 100 µM
TGI (NCI-H522 lung): > 100 µM
TGI (786-0 renal): > 100 µM
TGI (UO-31 renal): > 100 µM
TGI (CAKI-1 renal): 95 µM
TGI (UACC-257 melanoma): > 100 µM
TGI (DMS 273 small cell lung): > 100 µM
TGI (SW-620 colon): 32.3 µM
TGI (LOX IMVI melanoma): 32.5 µM
TGI (HCC-2998 colon): > 100 µM
TGI (COLO 205 colon): > 100 µM
TGI (SNB-75 CNS): > 100 µM
TGI (NCI-H23 lung): > 100 µM
TGI (SR leukemia): > 100 µM
TGI (EKVX NSCLC): > 100 µM
TGI (SF-295 CNS): > 100 µM
TGI (MOLT-4 leukemia): > 100 µM
TGI (HL-60(TB) leukemia): > 100 µM
TGI (M14 melanoma): > 100 µM
TGI (UACC-62 melanoma): > 100 µM
TGI (OVCAR-5 ovarian): > 100 µM
TGI (HOP-18 NSCLC): > 100 µM
TGI (SK-OV-3 ovarian): > 100 µM
TGI (KM20L2 colon): > 100 µM
TGI (SK-MEL-5 melanoma): > 100 µM
